From ChEMBL document CHEMBL1157257, “Bioactive ent-clerodane diterpenoids from the aerial parts of Baccharis gaudichaudiana” (2006)
Calls of active or inactive are those of the source. The rule behind the calls is not given here.

How the values were obtained:
[1] = tested on: PC-12; experiment: Effect on neurite outgrowth from rat PC12D cells at 10 to 100 umol after 48 hrs by phase-contrast microscopy; assay type: functional, cell-based
[2] = tested on: PC-12; experiment: Enhancement of 2 ng/mL NGF-induced neurite outgrowth in rat PC12D cells at 100 umol after 48 hrs by phase-contrast microscopy relative to 50 ng/mL NGF alone; assay type: functional
[3] = tested on: PC-12; experiment: Enhancement of NGF-induced neurite outgrowth in rat PC12D cells at 10 to 100 umol after 48 hrs by phase-contrast microscopy; assay type: functional, cell-based

Row | SMILES | Activity [1] | Activity [2] [%] | Activity [3]
1 | CO[C@H]1C[C@H](CC[C@@]2(C)[C@H](C)CC[C@@]3(C)C(C(=O)O)=CCC[C@H]23)CO1 | inactive | 49 | –
2 | COC(=O)CC(CO)CC[C@@]1(C)[C@H](C)C(=O)C[C@@]23COC(=O)C2=CCC[C@@H]31 (stereo not given in full) | – | – | inactive
3 | CO[C@@H]1C[C@H](CC[C@@]2(C)[C@H](C)CC[C@@]3(C)C(C(=O)O)=CCC[C@H]23)CO1 | inactive | 53 | –
